Data from patent US8080522B2, “Polyethlene glycol modifications of thymosin alpha-1” (Institute of Pharmacology and Toxicology Academy of …, priority 2005, dated 2011).

Legend:
spleen cell = experiment: Interferon-γ production of spleen cells stimulated by Con A (double antibody sandwich ELISA); type: cell-based; conditions: for Concentration of IFN-γ: Con A 0.5 μg/mL, 24 hours, n = 3; for Enhancement percentage: versus Con A alone
Protocol: Prepare spleen cell suspension in sterile condition. Adjust cell concentration to 5×10^6 cell/mL by adding RPMI-1640 culture with 20% bovine serum. Add 0.5 mL cell suspension, 0.25 mL Con A (final concentration is 0.5 μg/mL) and 0.25 mL samples with different concentrations in 24-well plate; and add RPMI-1640 culture in control wells. Incubate the plates in a 5% CO2 chamber at 37° C. for 24 hours. Centrifuge and collect supernatant, test the content of IFN-γ in supernatant by double antibody sandwich ELISA. The protocol is according to the instruction on ELISA kit.

[1] = tested on: T lymphocyte (spleen cell); experiment: T lymphocyte proliferation stimulated by Con A (3H-TdR incorporation); type: cell-based, mouse; conditions: for 3H-TdR incorporation (cpm, x ± SD): Con A 0.5 μg/mL, 72 hours, n = 4; for Enhancement percentage: versus Con A alone
Protocol: Sacrifice mouse by draining artery blood, remove spleen in sterile condition, and make it to spleen cell suspension. After red blood cell lysis, wash for 3 times, and stain with Trypan Blue to count the living cells. The amount of living cells should be more than 95%. Dilute the cell concentration to 5×10^6 cell/mL by adding RPMI-1640 culture with 10% bovine serum. Add spleen cell suspension to a sterilized 96-well plate for 100 μL per well. The total amount is 200 μL per well (including 50 μL Con A and 50 μL medicament). Each sample concentration is repeated fro 3-4 wells. Incubate the plate in a 5% CO2 chamber for 72 hours, add 10 μci/mL ^3H-TdR 20 μL per well 16 hours before termination of the incubation, giving rise to a final concentration of 1.0 μci (37.0 KBq)/mL. Collect cells on filter membrane by using Herveste 96 cell harvester, dried in 80° C. oven for 20 minutes or dried in air. Put the dried filter membrane into 1450-423 microBeta sample bag, add scintillation liquid, and measure radioactivity (cpm) in Perkin Elmer MicroBeta Trilux 1450 Scintillation Counter.

[2] = Plasma concentration / pharmacokinetics in mouse (competitive ELISA); type: in vivo; conditions: 300 μg per mouse, injected peritoneally, parameters in 24 h; for AUC: n = 3; for Cmax / Tmax: serum, ip, 300 ug/animal; for Cmax: n = 3, read-out: Cmax; for Tmax: n = 3, read-out: Tmax
Protocol: Coating antigen: Dilute Tα1 detection antigen stock solution to a final concentration of 2 μg/mL with coating solution, and add it into the wells of ELISA plate for 0.1 mL per well, and incubate at 4° C. for 5 days. Then wash the ELISA plate 3 times with washing buffer, each 0.2 mL/well and 3 min/time. Add 0.2 mL blocking buffer to each well, incubate for 1.5 hours at 37° C., wash plate 2 times by washing buffer, and spin dried.
Sample preparation: Weight sample accurately, dissolve it in saline to a concentration of 1.5 mg/mL. Administrate 0.2 Ml by injection to each mouse peritoneally. Collect blood sample in 3 min, 20 min, 40 min, 1 h, 2 h, 3 h, 6 h, 8 h, 12 h, and 24 h. Collect serum by centrifuge the blood samples for 5 minutes at 10000 rpm, stored at −20° C. in a freezer. o prepare test sample, […] was added by 0.1 mL 1:1500 rabbit anti-Tα1 serum (final concentration is 1:6000), and 0.2 mL CD-1® mouse serum, and […]. Prepare blank control at the same time. Total volume is 0.4 mL. Incubate for 2 hours at 37° C. To prepare standard sample, Tα1 0.1 mL with different concentrations from 0.0004 to 400 μg/mL was added by 0.1 mL 1:1500 rabbit anti-Tα1 serum (final concentration is 1:6000), and 0.2 mL CD-1® mouse serum. Prepare blank control at the same time. Total volume is 0.4 mL. Incubate for 2 hours at 37° C.
Sample Testing Add the prepared test sample and standard sample to ELISA plate, 0.1 mL/well, reacting for 1 hour in 37° C. chamber. Wash the plates 3 times, spin dryed. Add substrate 0.1 mL/well for 10 minutes. Add 2 mol/L H2SO4 0.05 mL to each well to terminate the reaction. Measure the OD value at 450 nm. Plot the standard curve with the concentration of Tα1 standard sample as abscissa and OD value as vertical coordinate. Calculate the content of test sample according to this standard curve.

[3] = Half-life in liver homogenate (HPLC); type: in vitro ADME; conditions: 37° C., sample 0.4 mg/mL or 0.8 mg/mL, read-out: t1/2 in liver homogenate (converted)
Protocol: Experimental method: Prepare 0.4 mg/mL or 0.8 mg/mL sample aqueous solution in centrifuge tube, adding 50 μL liver homogenate. Then incubate for different time in 37° C. water bath. Terminate the reaction and precipitate liver homogenate protein by heating the mixture in boiling water for 5 minutes. Centrifuge it (10000 rpm) for 10 minutes. Analyze the supernatant by HPLC. The data was statistically analyzed by Origin Prof. 5.0.
HPLC: Column temperature: 25° C.; Flow rate 1.0 mL/min; Detection wavelength: 200 nm; Mobile phase A: 0.1% TFA/H2O; Mobile phase B: 0.1% TFA/70% CH3CN.

AUC [2] | Cmax [2] | Tmax [2] | half-life [3] | Substance | Concentration of IFN-γ (spleen cell; Table 1-2, sample 1 μg/mL) | Enhancement percentage (spleen cell; Table 1-2, sample 1 μg/mL) | Concentration of IFN-γ (spleen cell; Table 1-2, sample 10 μg/mL) | Enhancement percentage (spleen cell; Table 1-2, sample 10 μg/mL) | Concentration of IFN-γ (spleen cell; Table 1-2, sample 100 μg/mL) | Enhancement percentage (spleen cell; Table 1-2, sample 100 μg/mL) | 3H-TdR incorporation (cpm, x ± SD) ([1]; Table 2-2, sample 10 μg/mL) | Enhancement percentage ([1]; Table 2-2, sample 10 μg/mL) | 3H-TdR incorporation (cpm, x ± SD) ([1]; Table 2-2, sample 50 μg/mL) | Enhancement percentage ([1]; Table 2-2, sample 50 μg/mL) | 3H-TdR incorporation (cpm, x ± SD) ([1]; Table 2-2, sample 100 μg/mL) | Enhancement percentage ([1]; Table 2-2, sample 100 μg/mL) | 3H-TdR incorporation (cpm, x ± SD) ([1]; Table 2-1, sample 10 μg/mL) | Enhancement percentage ([1]; Table 2-1, sample 10 μg/mL) | 3H-TdR incorporation (cpm, x ± SD) ([1]; Table 2-1, sample 50 μg/mL) | Enhancement percentage ([1]; Table 2-1, sample 50 μg/mL) | also measured
8760 ng·h/mL | 4940 ng/mL | 20 min | 48 min | Ac-SDAAVDTSSEITTKDCKEKKEVVEEAEN-OH [BMJBT004] | 3671.1 ± 86.0 pg/mL | +12.7% | 3216.1 ± 228.6 pg/mL | −1.3% | 3565.9 ± 77.8 pg/mL | +0.5% |  |  |  |  |  |  |  |  |  |  | 
6110 ng·h/mL | 3650 ng/mL | 20 min | 168 min | Ac-SDAAVDTSSEITTKDLCEKKEVVEEAEN-OH [BMJBT005] |  |  |  |  |  |  |  |  |  |  |  |  | 22237 ± 5551 cpm | +64.9% | 22413 ± 1436 cpm | +66.2% | Concentration of IFN-γ (spleen cell; Table 1-1, sample 1 μg/mL): 1822.2 ± 24.3 pg/mL; Enhancement percentage (spleen cell; Table 1-1, sample 1 μg/mL): +142.4%; Concentration of IFN-γ (spleen cell; Table 1-1, sample 10 μg/mL): 1706.5 ± 139.3 pg/mL; Enhancement percentage (spleen cell; Table 1-1, sample 10 μg/mL): +127.0%; Concentration of IFN-γ (spleen cell; Table 1-1, sample 100 μg/mL): 906.9 ± 10.7 pg/mL; Enhancement percentage (spleen cell; Table 1-1, sample 100 μg/mL): +20.6%; 3H-TdR incorporation (cpm, x ± SD) ([1]; Table 2-1, sample 100 μg/mL): 17551 ± 2491 cpm; Enhancement percentage ([1]; Table 2-1, sample 100 μg/mL): +30.1%
12800 ng·h/mL | 11500 ng/mL | 20 min | 156 min | Ac-SDAAVDTSSEITTKDLKEKKCVVEEAEN-OH [BMJBT006] |  |  |  |  |  |  |  |  |  |  |  |  | 21152 ± 2936 cpm | +56.8% | 19880 ± 1777 cpm | +47.4% | 3H-TdR incorporation (cpm, x ± SD) ([1]; Table 2-1, sample 100 μg/mL): 14319 ± 2333 cpm; Enhancement percentage ([1]; Table 2-1, sample 100 μg/mL): +6.2%
9220 ng·h/mL | 10100 ng/mL | 20 min | 252 min | Ac-SDAAVDTSSEITTKDLKEKKEVVEEAEN-OH [Tα1, reference compound] |  |  |  |  |  |  | 18315 ± 2194 cpm | +57.3% | 17007 ± 1526 cpm | +46.1% | 14383 ± 3225 cpm | +23.5% | 17871 ± 4635 cpm | +32.5% | 17007 ± 1526 cpm | +26.1% | Concentration of IFN-γ (spleen cell; Table 1-1, sample 1 μg/mL): 1449.3 ± 334.3 pg/mL; Enhancement percentage (spleen cell; Table 1-1, sample 1 μg/mL): +92.8%; Concentration of IFN-γ (spleen cell; Table 1-1, sample 10 μg/mL): 1514.0 ± 102.1 pg/mL; Enhancement percentage (spleen cell; Table 1-1, sample 10 μg/mL): +101.4%; Concentration of IFN-γ (spleen cell; Table 1-1, sample 100 μg/mL): 1007.2 ± 31.3 pg/mL; Enhancement percentage (spleen cell; Table 1-1, sample 100 μg/mL): +34.0%; Concentration of IFN-γ (spleen cell; Table 1-3, sample 1 μg/mL): 3609.6 ± 167.8 pg/mL; Enhancement percentage (spleen cell; Table 1-3, sample 1 μg/mL): +18.2%; Concentration of IFN-γ (spleen cell; Table 1-3, sample 10 μg/mL): 3891.5 ± 106.1 pg/mL; Enhancement percentage (spleen cell; Table 1-3, sample 10 μg/mL): +27.4%; Concentration of IFN-γ (spleen cell; Table 1-3, sample 100 μg/mL): 4361.3 ± 87.8 pg/mL; Enhancement percentage (spleen cell; Table 1-3, sample 100 μg/mL): +42.8%; 3H-TdR incorporation (cpm, x ± SD) ([1]; Table 2-1, sample 100 μg/mL): 14624 ± 3253 cpm; Enhancement percentage ([1]; Table 2-1, sample 100 μg/mL): +6.6%

The next lines start with the substance.

Substance | AUC [2] | Cmax [2] | Tmax [2] | half-life [3] | Concentration of IFN-γ (spleen cell; Table 1-2, sample 1 μg/mL) | Enhancement percentage (spleen cell; Table 1-2, sample 1 μg/mL) | Concentration of IFN-γ (spleen cell; Table 1-2, sample 10 μg/mL) | Enhancement percentage (spleen cell; Table 1-2, sample 10 μg/mL) | Concentration of IFN-γ (spleen cell; Table 1-2, sample 100 μg/mL) | Enhancement percentage (spleen cell; Table 1-2, sample 100 μg/mL) | 3H-TdR incorporation (cpm, x ± SD) ([1]; Table 2-2, sample 10 μg/mL) | Enhancement percentage ([1]; Table 2-2, sample 10 μg/mL) | 3H-TdR incorporation (cpm, x ± SD) ([1]; Table 2-2, sample 50 μg/mL) | Enhancement percentage ([1]; Table 2-2, sample 50 μg/mL) | 3H-TdR incorporation (cpm, x ± SD) ([1]; Table 2-2, sample 100 μg/mL) | Enhancement percentage ([1]; Table 2-2, sample 100 μg/mL) | 3H-TdR incorporation (cpm, x ± SD) ([1]; Table 2-1, sample 10 μg/mL) | Enhancement percentage ([1]; Table 2-1, sample 10 μg/mL) | 3H-TdR incorporation (cpm, x ± SD) ([1]; Table 2-1, sample 50 μg/mL) | Enhancement percentage ([1]; Table 2-1, sample 50 μg/mL) | also measured
Ac-SDAACDTSSEITTKDLKEKKEVVEEAEN-OH [BMJBT001] | 3090 ng·h/mL | 448 ng/mL | 20 min | 228 min | 3000.5 ± 56.1 pg/mL | −7.9% | 3584.2 ± 31.6 pg/mL | +10.0% | 3618.5 ± 93.8 pg/mL | +11.0% | 19289 ± 4456 cpm | +65.7% | 19972 ± 3287 cpm | +71.6% | 21119 ± 5339 cpm | +81.4% |  |  |  |  | 
Ac-SDAAVDTCSEITTKDLKEKKEVVEEAEN-OH [BMJBT002] | 2440 ng·h/mL | 1860 ng/mL | 20 min | 126 min |  |  |  |  |  |  | 23881 ± 2809 cpm | +105.1% | 19611 ± 2612 cpm | +68.5% | 11956 ± 1555 cpm | +2.6% |  |  |  |  | 
Ac-SDAAVDTSSECTTKDLKEKKEVVEEAEN-OH [BMJBT003] | 8710 ng·h/mL | 5650 ng/mL | 20 min | 168 min | 3428.6 ± 111.9 pg/mL | +5.2% | 3732.2 ± 30.2 pg/mL | +14.5% | 3990.8 ± 250.0 pg/mL | +22.5% | 21825 ± 2216 cpm | +87.5% | 20465 ± 2432 cpm | +77.3% | 15240 ± 2369 cpm | +30.9% |  |  |  |  | 
